Target: D(1A) dopamine receptor (Canis familiaris)
Assay: Ability to inhibit the binding of [3H]-SCH- 23390 to canine striatal membrane

Kd: 0.15 nM
SMILES: CN1CCc2cc(I)c(O)cc2C(c2ccc(N=[N+]=[N-])cc2)C1 (stereo unspecified) [5-(4-Azido-phenyl)-8-iodo-3-methyl-2,3,4,5-tetrahydro-1H-benzo[d]azepin-7-ol]
